Measured values from patent publication US20020028936A1, “1,3-disubstituted indolin-2-ones for neoplasia” (priority 1999, published 2002).

Legend:
[1] = system: human colon carcinoma cell line, HT-29; assay: Growth inhibition, Sulforhodamine B (SRB) protein binding assay; format: cell-based; conditions: HT-29 cells, six days continuous exposure, read-out: IC50 value (concentration of drug needed to inhibit tumor cell growth by 50%)
Description: The compound of Example No. 1 was assayed for their growth inhibitory activity on the human colon carcinoma cell line, HT-29 obtained from ATCC (Rockville, Md.), to ascertain the degree of growth inhibition. Growth inhibition of this cell line is indicative of a benefit on precancerous lesions and neoplasms. The cell line and growth inhibition assay employed for such experiments are well characterized, and are used to evaluate the anti-neoplastic properties of substances. The assay is used by the United States National Cancer Institute in its screening program for new anti-cancer drugs.
Drug stock solutions were made in 100% DMSO and were then diluted with RPMI media for cell culture testing. All drug solutions were prepared fresh on the day of testing. The cultured cells were obtained at passage #99 and grown in RPMI media supplemented with 5% fetal calf serum, and 2 mM glutamine, 100 U/ml penicillin, […] streptomycin, and 0.25 μg/ml amphotericin. The cultures were maintained in a humidified atmosphere of 95% air and 5% CO2 at 37° C. The cultures were passaged at preconfluent densities using a solution of 0.05% trypsin and 0.53 mM EDTA. […]
Tumor cell growth inhibition was assessed using the Sulforhodamine B (SRB) protein binding assay. […] The dye was then solubilized, and the optical density of the resulting solution was determined on a 96-well plate reader. […]

[2] = biological target: T1, purified cyclooxygenase Type I (Ovis aries, UniProt P05979); assay: Cyclooxygenase (COX) inhibition, purified COX; format: biochemical; conditions: 100 μM compound; COX purified from ram seminal vesicles; arachidonic acid 100 μM, 2.0 min at 37° C.
T1 construct: The COX was purified from ram seminal vesicles; from tissue; host or cells: ram seminal vesicles
T1 sequence (P05979 25-600): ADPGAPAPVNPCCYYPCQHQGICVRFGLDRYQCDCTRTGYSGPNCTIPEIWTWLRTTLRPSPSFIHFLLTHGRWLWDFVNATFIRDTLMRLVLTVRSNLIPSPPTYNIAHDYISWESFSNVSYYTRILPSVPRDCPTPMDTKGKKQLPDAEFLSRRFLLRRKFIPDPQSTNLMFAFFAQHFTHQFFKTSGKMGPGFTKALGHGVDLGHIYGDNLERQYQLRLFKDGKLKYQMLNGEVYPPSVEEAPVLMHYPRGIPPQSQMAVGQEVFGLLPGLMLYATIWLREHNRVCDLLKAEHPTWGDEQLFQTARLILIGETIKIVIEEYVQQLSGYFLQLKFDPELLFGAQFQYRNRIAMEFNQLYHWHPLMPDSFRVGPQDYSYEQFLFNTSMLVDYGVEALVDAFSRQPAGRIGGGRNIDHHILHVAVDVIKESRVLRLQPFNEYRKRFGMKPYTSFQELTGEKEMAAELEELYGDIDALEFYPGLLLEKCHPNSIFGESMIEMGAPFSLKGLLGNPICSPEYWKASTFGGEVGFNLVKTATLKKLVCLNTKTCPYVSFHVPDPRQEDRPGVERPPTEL
Description: The assay was terminated by the addition of TCA, and COX activity was determined by absorbance at 530 nm.

[3] = system: SW-480 colon adenocarcinoma cells; assay: Apoptosis, DNA fragmentation (Cell Death Detection ELISA plus); format: cell-based; conditions: at 100 μM; SW-480 cells, 48 hrs incubation
Description: Apoptosis was measured based on the amount of fragmented DNA contained in cell lysates. Briefly, SW-480 colon adenocarcinoma cells were plated in 96-well microtitre plates (“MTP”) at a density of 10K cells/well in 180 μl and were incubated for 24 hrs. Cells were then treated with 20 μl aliquots of appropriately diluted compound, and allowed to incubate for an additional 48 hrs.
After the incubation, samples were prepared according to the following steps. The MTP was centrifuged (15 min., 1000 rpm) and the supernatant was carefully removed by fast inversion of the MTP. […] Samples were analyzed immediately, because storage at 4° C. or −20° C. reduces the ELISA-signals.
Samples were then processed according to a DNA fragmentation assay protocol, and dose-response curves were generated based on optical density readings. Quantification of DNA was done by a commercially available photometric enzyme-immunoassay manufactured by Mannheim-Boehringer under the name “Cell Death Detection ELISA^plus”. The assay is based on a quantitative sandwich-enzyme-immunoassay-principle using mouse monoclonal antibodies directed against DNA and histones, respectively. […] After removal of unbound antibodies by a washing step, the amount of nucleosomes is quantified by the POD retained in the immunocomplex. POD is determined photometrically with ABTS® (2,2′-Azino-di[3-ethylbenzthiazolin-sulfonate) as substrate. […]

O=C1C(=Cc2ccccc2)c2ccccc2N1Cc1ccc(F)cc1 [Example 1, (Z, E) 1-(4-Fluorobenzyl)-3-Benzylidene-Indolin-2-One]
IC50 [1]: ~7.3 µM
COX I % Inhibition (100 μM) [2]: <25%
fold stimulation (apoptosis, fragmented DNA) [3]: 6 fold
